# Where two headings read alike, the source gives them in different places.
# Tests used:
# Experiment in all cases: Greenhouse test, pre-emergence treatment
# SETFA = assay type: in vivo, Setaria faberi; details: Setaria faberi, 480 h, use rate 30 g ai/ha, read-out: observed % activity 20 DAT
# In short: (§1)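 Damage was rated on a 0-100 scale, with 100 meaning no emergence or full destruction of aerial parts. Observed combination effects were set against the additive Colby expectation E=X+Y−(X·Y/100). Spray liquor was water-based, from 10% emulsion concentrates, applied pre-emergence right after sowing in loamy sand (about 3.0% humus). Plants were held at 10-25 °C or 20-35 °C for 2 to 4 weeks.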
# POLCO = assay type: in vivo, Polygonum convolvulus; details: Fallopia convolvulus, pre-emergence, 480 h, 20 g ai/ha, 20 DAT; read-out: observed % activity
# In short: as §1
# SORHA = assay type: in vivo, Sorghum halepense; details: Sorghum halepense, pre-emergence, 480 h; 40 g ai/ha, 20 DAT; read-out: observed % activity
# Text: The culture containers used were plastic flowerpots containing loamy sand with approximately 3.0% of humus as the substrate. The seeds of the test plants were sown separately for each species.
# For the pre-emergence treatment, the active ingredients, which had been suspended or emulsified in water, were applied directly after sowing by means of finely distributing nozzles. The containers were irrigated gently to promote germination and growth and subsequently covered with transparent plastic hoods until the plants had rooted. This cover caused uniform germination of the test plants, unless this had been impaired by the active ingredients.
# Depending on the species, the plants were kept at 10-25° C. or 20-35° C., respectively.
# The test period extended over 2 to 4 weeks. During this time, the plants were tended, and their response to the individual treatments was evaluated.
# Evaluation was carried out using a scale from 0 to 100. 100 means no emergence of the plants, or complete destruction of at least the aerial moieties, and 0 means no damage, or normal course of growth. A moderate herbicidal activity is given at values of at least 60, a good herbicidal activity is given at values of at least 70, and a very good herbicidal activity is given at values of at least 85.
# The respective stated components a and b, and if appropriate, c were formulated as a 10% by weight strength emulsion concentrate and, with addition of the amount of solvent system, introduced into the spray liquor used for applying the active compound.
# In the examples, the solvent used was water.
# In the examples below, using the method of S. R. Colby (1967) “Calculating synergistic and antagonistic responses of herbicide combinations”, Weeds 15, p. 22ff., the value E, which is expected if the activity of the individual active compounds is only additive, was calculated. E=X+Y−(X·Y/100) where • X=percent activity using active compound a at an application rate A; • Y=percent activity using active compound b at an application rate B; • E=expected activity (in %) by a+b at application rates A+B.
# If the value found experimentally is higher than the value E calculated according to Colby, a synergistic effect is present.
# ALOMY = assay type: in vivo, Alopecurus myosuroides; details: Alopecurus myosuroides, pre-emergence, 480 h
# In short: as §1
# ECHCG = assay type: in vivo, Echinocloa crus-galli; details: Echinochloa crus-galli, 480 h, read-out: observed % activity 20 DAT
# In short: as §1
# LOLMU = assay type: in vivo, Lolium multiflorum; details: Lolium multiflorum, pre-emergence, 480 h, pre-emergence, read-out: observed % activity 20 DAT
# In short: as §1
# GALAP = assay type: in vivo, Galium aparine; details: Galium aparine, pre-emergence, 480 h, 40 g ai/ha, 20 DAT; read-out: observed % activity
# In short: as §1
# AVEFA = assay type: in vivo, Avena fatua; details: pre-emergence
# In short: as §1
# BRADC = assay type: in vivo, Brachiaria decumbens; details: Urochloa decumbens, pre-emergence, 480 h
# In short: as §1
# KCHSC = assay type: in vivo, Kochia scoparia; details: Bassia scoparia, pre-emergence, 480 h
# In short: as §1
# PHACA = assay type: in vivo, Phalaris canariensis; details: Phalaris canariensis, pre-emergence, 480 h
# In short: as §1
# [1] = 10 g ai/ha, 20 DAT, read-out: observed % activity
# [2] = 10 g ai/ha, read-out: observed % activity 20 DAT
# [3] = 20 g ai/ha, read-out: observed % activity 20 DAT
# [4] = 40 g ai/ha, read-out: observed % activity 20 DAT
# [5] = use rate 30 g ai/ha, read-out: observed % activity 20 DAT
# [6] = use rate 60 g ai/ha, 20 DAT, read-out: observed % activity 20 DAT
# [7] = use rate 60 g ai/ha, read-out: observed % activity 20 DAT
# [8] = 40 g ai/ha, 20 DAT, read-out: observed % activity
# [9] = 30 g ai/ha, read-out: observed % activity 20 DAT
# [10] = 20 g ai/ha, 20 DAT, read-out: observed % activity
structure (smiles),measurement,setting,value
"CC(C)N(C(=O)COc1nnc(C(F)(F)F)s1)c1ccc(F)cc1 [Flufenacet, flufenacet]",inhibition at 30 g/ha,SETFA,98%
same,inhibition at 20 g/ha,POLCO,0%
same,inhibition at 40 g/ha,SORHA,95%
same,inhibition at 10 g/ha,ALOMY; [1],28%
same,pest or weed control at 10 g/ha,ALOMY; [2],25%
same,pest or weed control at 20 g/ha,ALOMY; [3],70%
same,pest or weed control at 40 g/ha,ALOMY; [4],75%
same,inhibition at 30 g/ha,ALOMY; [5],75%
same,pest or weed control at 60 g/ha,ALOMY; [6],80%
same,inhibition at 60 g/ha,ALOMY; [7],80%
same,pest or weed control at 30 g/ha,ECHCG; 30 g ai/ha,75%
same,pest or weed control at 60 g/ha,ECHCG; 60 g ai/ha,95%
same,pest or weed control at 30 g/ha,"ECHCG; use rate 30 g ai/ha, 20 DAT",85%
same,inhibition at 30 g/ha,ECHCG; use rate 30 g ai/ha,85%
same,pest or weed control at 10 g/ha,LOLMU; 10 g ai/ha,0%
same,pest or weed control at 20 g/ha,LOLMU; 20 g ai/ha,20%
same,pest or weed control at 30 g/ha,LOLMU; 30 g ai/ha,30%
same,pest or weed control at 40 g/ha,LOLMU; 40 g ai/ha,55%
same,pest or weed control at 30 g/ha,"LOLMU; use rate 30 g ai/ha, 20 DAT",0%
same,inhibition at 30 g/ha,LOLMU; use rate 30 g ai/ha,20%
same,pest or weed control at 60 g/ha,"LOLMU; use rate 60 g ai/ha, 20 DAT",30%
same,inhibition at 60 g/ha,LOLMU; use rate 60 g ai/ha,30%
same,inhibition at 40 g/ha,GALAP,40%
same,inhibition at 40 g/ha,"AVEFA; Avena fatua, 480 h, 40 g ai/ha, 20 DAT, read-out: observed % activity",10%
same,observed % activity 20 DAT,AVEFA; 30 g ai/ha,0%
same,observed % activity 20 DAT,AVEFA; 40 g ai/ha,55%
same,inhibition at 40 g/ha,BRADC; [8],65%
same,pest or weed control at 10 g/ha,BRADC; [2],45%
same,pest or weed control at 20 g/ha,BRADC; [3],40%
same,pest or weed control at 30 g/ha,BRADC; [9],0%
same,pest or weed control at 40 g/ha,BRADC; [4],25%
same,pest or weed control at 60 g/ha,"BRADC; 60 g ai/ha, read-out: observed % activity 20 DAT",98%
same,inhibition at 10 g/ha,KCHSC; [1],0%
same,inhibition at 20 g/ha,KCHSC; [10],0%
same,inhibition at 40 g/ha,KCHSC; [8],0%
same,inhibition at 30 g/ha,KCHSC; [5],0%
same,inhibition at 60 g/ha,KCHSC; [7],0%
same,inhibition at 10 g/ha,PHACA; [1],0%
same,inhibition at 20 g/ha,PHACA; [10],33%
same,pest or weed control at 10 g/ha,PHACA; [2],10%
same,pest or weed control at 20 g/ha,PHACA; [3],65%
same,pest or weed control at 30 g/ha,PHACA; [9],80%
same,pest or weed control at 40 g/ha,PHACA; [4],75%
same,inhibition at 30 g/ha,PHACA; [5],65%
same,pest or weed control at 60 g/ha,PHACA; [6],98%
same,inhibition at 60 g/ha,PHACA; [7],98%
